Source: US5436254A, “Carbostyril derivatives” (Otsuka Pharmaceutical Company, Ltd., priority 1989, dated 1995)

target: V1 receptor (Rattus norvegicus, UniProt P30560); assay: biochemical; assay type: binding; settings: not given
Sequence (P30560 whole entry): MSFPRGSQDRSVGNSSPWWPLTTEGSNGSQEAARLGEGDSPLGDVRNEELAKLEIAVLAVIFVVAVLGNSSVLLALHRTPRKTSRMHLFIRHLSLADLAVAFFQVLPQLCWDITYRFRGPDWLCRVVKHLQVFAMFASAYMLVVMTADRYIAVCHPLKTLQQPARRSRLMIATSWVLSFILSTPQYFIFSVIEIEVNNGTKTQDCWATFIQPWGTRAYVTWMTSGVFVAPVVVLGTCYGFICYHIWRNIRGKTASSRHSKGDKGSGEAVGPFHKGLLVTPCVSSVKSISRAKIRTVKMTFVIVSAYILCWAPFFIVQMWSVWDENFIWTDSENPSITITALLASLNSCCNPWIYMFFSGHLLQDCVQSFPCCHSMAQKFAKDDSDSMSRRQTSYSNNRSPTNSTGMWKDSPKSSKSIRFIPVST

Compound | IC50
COc1ccc(C(=O)N2CCC(N3C(=O)CCc4ccccc43)CC2)c(OC)c1 [Example 47, 1-[1-(2,4-Dimethoxybenzoyl)-4-piperidinyl]-3,4-dihydrocarbostyril] | 100 nM
C=CC[N+](C)([O-])CCCCCOc1ccc(C(=O)N2CCC(N3C(=O)CCc4ccccc43)CC2)cc1 (stereo not shown) [Example 246, N-{5-[4-(4-(3,4-Dihydrocarbostyril-1-yl)-1-piperidinylcarbonyl)phenoxy]pentyl}, N-methyl, N-allylamine oxide] | 290 nM
CC[N+](CC)(CC)CCCCCOc1ccc(C(=O)N2CCC(N3C(=O)CCc4ccccc43)CC2)cc1 [Example 235, 1-{1-[4-(5-Triethylammouniumpentyloxy)benzoyl]-4-piperidinyl)-3,4-dihydrocarbostyril bromide] | 66 nM
O=C(c1ccc(OCCCCn2cccc2)cc1)N1CCC(N2C(=O)CCc3ccccc32)CC1 [Example 125, 1-[1-{4-[4-(1-pyrrolyl)butoxy]benzoyl}-4-piperidinyl]-3,4-dihydrocarbostyril] | 590 nM
CN(CCO)CC(=O)NCCCCCOc1ccc(C(=O)N2CCC(N3C(=O)CCc4ccccc43)CC2)cc1 [Example 257, 1-{1-(4-[5-(2-(N-(2-Hydroxyethyl)-N-methylamino)acetylamino)pentyloxy]benzoyl)-4-piperidinyl}-3,4-dihydrocarbostyril] | 200 nM
Nc1ccc(C(=O)NCCCOc2ccc(C(=O)N3CCC(N4C(=O)CCc5ccccc54)CC3)cc2)cc1 [Example 193, 1-{1-[4-(3-(4-Aminobenzoylamino)propoxy)benzoyl]-4-piperidinyl}-3,4-dihydrocarbostyril] | 120 nM
COCc1ccc(C(=O)N2CCC(N3C(=O)CCc4ccccc43)CC2)cc1 [Example 109, 1-[1-(4-Methoxymethylbenzoyl)-4-piperidinyl]-3,4-dihydrocarbostyril] | 750 nM
O=C(c1ccc(OCCCCCS(=O)(=O)c2cc[n+]([O-])cc2)cc1)N1CCC(N2C(=O)CCc3ccccc32)CC1 [Example 288, 1-{1-(4-[5-(Pyridine-N-oxide-4-ylsulfonyl)pentyloxy]benzoyl)-4-piperidinyl}-3,4-dihydrocarbostyril] | 48 nM
C=CCN(C)CCCCCOc1ccc(C(=O)N2CCC(N3C(=O)CCc4ccccc43)CC2)cc1 [Example 245, 1-{1-(4-[5-(N-Allyl-N-methylamino)pentyloxy]benzoyl)-4-piperidinyl}-3,4-dihydrocarbostyril] | 54 nM
COCCCOc1cc(OC)ccc1C(=O)N1CCC(N2C(=O)CCc3ccccc32)CC1 [Example 66, 1-{1-[2-(3-Methoxypropoxy)-4-methoxybenzoyl]-piperidinyl}-3,4-dihydrocarbostyril] | 410 nM
N[C@@H](Cc1ccc(O)cc1)C(=O)NCCCOc1ccc(C(=O)N2CCC(N3C(=O)CCc4ccccc43)CC2)cc1 [Example 223, 1-[1-{4-[3-(S)-Tyrosylaminopropoxy]benzoyl}-4-piperidinyl]-3,4-dihydrocarbostyril] | 72 nM
O=C(c1ccc(OCCCCC(O)CN2CCC[C@H]2CO)cc1)N1CCC(N2C(=O)CCc3ccccc32)CC1 (stereo partly shown) [Example 220] | 20 nM
O=C(c1ccc(OCCCCCCO)cc1)N1CCC(N2C(=O)CCc3ccccc32)CC1 [Example 128, 1-{1-[4-(6-Hydroxyhexyloxy)benzoyl]-4-piperidinyl}-3,4-dihydrocarbostyril] | 230 nM
O=C(c1ccc(OCc2ccccc2)cc1)N1CCC(N2C(=O)CCc3ccccc32)CC1 [Example 97, 1-[1-(4-Benzyloxybenzoyl)-4-piperidinyl]-3,4-dihydrocarbostyril] | 1100 nM
COc1ccc(C(=O)N2CCC(N3C(=O)CCc4ccccc43)CC2)c(NC(C)=O)c1 [Example 104, 1-[1-(4-Methoxy-2-acetylaminobenzoyl)-4-piperidinyl]-3,4-dihydrocarbostyril] | 1000 nM
COc1ccc(C(=O)N2CCC(N3C(=O)CCc4ccccc43)CC2)c(OCCO)c1 [Example 68, 1-{1-[2-(2-Hydroxyethoxy)-4-methoxybenzoyl]-4-piperidinyl}-3,4-dihydrocarbostyril] | 360 nM
CC(=O)NCC(O)CCCCOc1ccc(C(=O)N2CCC(N3C(=O)CCc4ccccc43)CC2)cc1 (stereo not shown) [Example 177, 1-{1-[4-(5-Hydroxy-6-acetylaminohexyloxy)-benzoyl]-4-piperidinyl}-3,4-dihydrocarbostyril] | 130 nM
O=C(c1ccc(OCCCCCN2CCCC2)cc1OCCCCCN1CCCC1)N1CCC(N2C(=O)CCc3ccccc32)CC1 [Example 291] | 98 nM
O=C(c1ccc(OCCCCN2CCNCC2)cc1)N1CCC(N2C(=O)CCc3ccccc32)CC1 [Example 157, 1-{1-[4-[4-(1-Piperazinyl)butoxy]benzoyl]-4-piperidinyl}-3,4-dihydrocarbostyril.dioxalate] | 90 nM
COc1cc(OCCCCC(N)=O)ccc1C(=O)N1CCC(N2C(=O)CCc3ccccc32)CC1 [Example 294, 1-{1-[2-Methoxy-4-(4-carbamoylbutoxy)benzoyl]-4-piperidinyl}-3,4-dihydrocarbostyril] | 170 nM
O=C(c1ccc(OCCCCCCN2CCC(N3CCCCC3)CC2)cc1)N1CCC(N2C(=O)CCc3ccccc32)CC1 [Example 265, 1-(1-(4-[6-(4-(1-Piperidinyl)-1-piperidinyl)hexyloxy]benzoyl)-4-piperidinyl}-3,4-dihydrocarbostyril.dioxalate] | 19 nM
CC(=O)N1CCN(CCCCOc2ccc(C(=O)N3CCC(N4C(=O)CCc5ccccc54)CC3)cc2)CC1 [Example 162, 1-{1-[4-[4-(4-Acetyl-1-piperazinyl)butoxy]benzoyl]-4-piperidinyl}-3,4-dihydrocarbostyril] | 110 nM
O=C(c1ccc(OCCCCC[S+]([O-])c2ncccn2)cc1)N1CCC(N2C(=O)CCc3ccccc32)CC1 (stereo not shown) [Example 280, 1-{1-(4-[5-(2-Pyrimidylsufinyl)pentyloxy]benzoyl)-4-piperidinyl}-3,4-dihydrocarbostyril] | 87 nM
CNCC(O)CCCOc1ccc(C(=O)N2CCC(N3C(=O)CCc4ccccc43)CC2)cc1 (stereo not shown) [Example 30, 1-{1-[4-(5-Methylamino-4-hydroxypentyloxy)benzoyl]-4-piperidinyl}-3,4-dihydrocarbostyril] | 330 nM

test system: increase of diastolic pressure caused by Arg-vasopressin; assay: Anti-vasopressor activity in vivo (pith rat, increase of diastolic pressure by Arg-vasopressin); design: species or system male SD rat; settings: iv, read-out: ED50 (dose required to reduce the increase of diastolic pressure caused by Arg-vasopressin to 50 % of its control value)

Compound | ED50
COc1ccc(C(=O)N2CCC(N3C(=O)CCc4ccccc43)CC2)c(OC)c1 [Example 47, 1-[1-(2,4-Dimethoxybenzoyl)-4-piperidinyl]-3,4-dihydrocarbostyril] | 0.4 mg/kg
